Results from paper PMC10638397, “Engineering sulfonate group donor regeneration systems to boost biosynthesis of sulfated compounds” (Nature Communications, 2023).

Tests used:
Type in all cases: biochemical
PPK2^s.e = target: T1, PPK2^s.e (Staphylococcus epidermidis, UniProt Q5HL47); test: polyphosphate kinase assay, HPLC; details: polyP6, Mg2+, pH 7.5, 35 °C
T1 construct: gene SERP2140
T1 sequence (Q5HL47 1-474): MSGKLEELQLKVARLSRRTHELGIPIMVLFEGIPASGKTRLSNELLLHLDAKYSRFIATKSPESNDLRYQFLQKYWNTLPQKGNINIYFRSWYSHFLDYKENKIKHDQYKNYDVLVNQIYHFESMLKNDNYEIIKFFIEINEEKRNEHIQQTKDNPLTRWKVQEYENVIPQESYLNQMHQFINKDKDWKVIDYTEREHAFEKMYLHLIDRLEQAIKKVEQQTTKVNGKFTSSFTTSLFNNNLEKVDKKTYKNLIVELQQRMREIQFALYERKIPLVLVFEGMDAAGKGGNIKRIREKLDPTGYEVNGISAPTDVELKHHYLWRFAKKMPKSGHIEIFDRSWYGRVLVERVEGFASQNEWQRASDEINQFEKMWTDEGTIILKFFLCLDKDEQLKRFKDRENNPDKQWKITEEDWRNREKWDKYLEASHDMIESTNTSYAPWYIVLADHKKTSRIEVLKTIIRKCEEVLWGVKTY

[1] = system: T2, chondroitin 4-O-sulfotransferase (C4ST); test: sulfotransferase kinetics, HPLC-MS; details: Mg2+, pH 7.5, 35 °C (general assay); acceptor not given
T2 construct: gene Chst11; recombinant
Excerpt: sulfotransferase kinetics, HPLC-MS on chondroitin 4-O-sulfotransferase (C4ST)

PPK2^r.p = target: T3, PPK2^r.p (Ruegeria pomeroyi, UniProt Q5LX16); test: polyphosphate kinase assay, HPLC; details: polyP6, Mg2+, pH 7.5, 35 °C
T3 construct: gene SPO0224
T3 sequence (Q5LX16 1-305): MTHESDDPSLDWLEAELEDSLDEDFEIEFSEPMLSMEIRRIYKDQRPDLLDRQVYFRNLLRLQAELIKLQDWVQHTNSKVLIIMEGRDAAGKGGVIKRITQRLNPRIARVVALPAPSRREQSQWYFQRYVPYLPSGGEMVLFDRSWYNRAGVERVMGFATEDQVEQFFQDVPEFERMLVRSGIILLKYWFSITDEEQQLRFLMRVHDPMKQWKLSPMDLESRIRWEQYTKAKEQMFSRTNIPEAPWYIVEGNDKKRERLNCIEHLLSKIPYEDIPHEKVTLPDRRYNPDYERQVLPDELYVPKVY

PPK2^d.r = target: T4, PPK2^d.r (Meiothermus ruber, UniProt M9XB82); test: polyphosphate kinase assay, HPLC; details: polyP6, Mg2+, pH 7.5, 35 °C
T4 construct: gene K649_10090
T4 sequence (M9XB82 1-267): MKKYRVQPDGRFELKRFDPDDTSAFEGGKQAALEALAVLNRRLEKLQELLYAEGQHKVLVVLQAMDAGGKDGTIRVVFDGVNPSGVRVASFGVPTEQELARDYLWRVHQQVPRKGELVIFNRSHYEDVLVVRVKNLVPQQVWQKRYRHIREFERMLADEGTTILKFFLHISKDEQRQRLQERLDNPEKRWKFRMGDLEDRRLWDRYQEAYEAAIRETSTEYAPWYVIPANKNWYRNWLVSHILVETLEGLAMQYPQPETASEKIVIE

PPK2A^p.a = target: T5, PPK2A^p.a (Pseudomonas aeruginosa, UniProt Q9I6Z1); test: polyphosphate kinase assay, HPLC; details: polyP6, Mg2+, pH 7.5, 35 °C
T5 construct: gene ppk2
T5 sequence (Q9I6Z1 2-357): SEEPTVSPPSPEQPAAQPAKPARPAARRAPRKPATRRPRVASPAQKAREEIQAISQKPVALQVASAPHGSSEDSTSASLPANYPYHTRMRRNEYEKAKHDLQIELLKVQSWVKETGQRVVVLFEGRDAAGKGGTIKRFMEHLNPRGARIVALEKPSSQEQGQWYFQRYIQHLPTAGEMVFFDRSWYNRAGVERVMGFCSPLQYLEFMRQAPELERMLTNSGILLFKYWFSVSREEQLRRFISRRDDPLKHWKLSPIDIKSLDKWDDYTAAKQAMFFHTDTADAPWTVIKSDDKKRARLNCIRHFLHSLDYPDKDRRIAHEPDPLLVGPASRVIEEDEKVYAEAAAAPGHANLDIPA

PPK2B^p.a = target: T6, PPK2B^p.a (Pseudomonas aeruginosa, UniProt Q9I154); test: polyphosphate kinase assay, HPLC; details: polyP6, Mg2+, pH 7.5, 35 °C
T6 construct: gene PA2428
T6 sequence (Q9I154 1-304): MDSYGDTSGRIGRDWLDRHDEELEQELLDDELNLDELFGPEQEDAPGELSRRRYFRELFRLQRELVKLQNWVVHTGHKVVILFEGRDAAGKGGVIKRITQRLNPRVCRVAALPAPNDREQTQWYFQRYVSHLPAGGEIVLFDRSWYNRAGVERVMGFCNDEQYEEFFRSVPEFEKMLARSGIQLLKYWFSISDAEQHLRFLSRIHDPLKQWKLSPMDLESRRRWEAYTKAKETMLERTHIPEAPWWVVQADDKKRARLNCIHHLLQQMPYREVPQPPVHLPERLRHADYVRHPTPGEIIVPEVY

PPK2C^p.a = target: T7, PPK2C^p.a (Pseudomonas aeruginosa, UniProt Q9HYF1); test: polyphosphate kinase assay, HPLC; details: polyP6, Mg2+, pH 7.5, 35 °C
T7 construct: gene PA3455
T7 sequence (Q9HYF1 1-496): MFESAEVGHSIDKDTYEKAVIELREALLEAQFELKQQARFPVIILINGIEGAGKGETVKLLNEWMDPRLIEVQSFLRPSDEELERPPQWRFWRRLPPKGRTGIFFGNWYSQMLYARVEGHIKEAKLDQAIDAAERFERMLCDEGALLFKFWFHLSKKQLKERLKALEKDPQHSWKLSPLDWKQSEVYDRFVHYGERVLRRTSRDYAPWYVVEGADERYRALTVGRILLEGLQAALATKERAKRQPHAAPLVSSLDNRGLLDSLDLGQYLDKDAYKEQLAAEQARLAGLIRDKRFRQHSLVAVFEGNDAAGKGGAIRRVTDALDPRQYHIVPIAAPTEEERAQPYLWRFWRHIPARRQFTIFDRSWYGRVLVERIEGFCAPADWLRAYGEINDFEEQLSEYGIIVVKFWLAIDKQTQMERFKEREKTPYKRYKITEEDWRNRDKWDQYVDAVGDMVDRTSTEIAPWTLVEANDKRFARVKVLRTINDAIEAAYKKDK

Km [1]	SMILES	polyphosphate kinase assay, HPLC (PPK2^s.e)	polyphosphate kinase assay, HPLC (PPK2^r.p)	polyphosphate kinase assay, HPLC (PPK2^d.r)	polyphosphate kinase assay, HPLC (PPK2A^p.a)	polyphosphate kinase assay, HPLC (PPK2B^p.a)	polyphosphate kinase assay, HPLC (PPK2C^p.a)
–	Nc1ncnc2c1ncn2[C@@H]1O[C@H](COP(=O)(O)OP(=O)(O)O)[C@@H](O)[C@H]1O [ADP]	all the other polyphosphate kinases exhibited both AMP and ADP phosphorylase activities	–	–	–	–	–
1.27 ± 0.14 mM	Nc1ncnc2c1ncn2[C@@H]1O[C@H](COP(=O)(O)OS(=O)(=O)O)[C@@H](OP(=O)(O)O)[C@H]1O [PAPS]	–	–	–	–	–	–
–	Nc1ncnc2c1ncn2[C@@H]1O[C@H](COP(=O)(O)O)[C@@H](O)[C@H]1O [AMP]	PPK2^s.e (from S. epidermidis) showed the highest enzymatic activity and preferentially utilized AMP	all the other polyphosphate kinases exhibited both AMP and ADP phosphorylase activities	all the other polyphosphate kinases exhibited both AMP and ADP phosphorylase activities	all the other polyphosphate kinases exhibited both AMP and ADP phosphorylase activities	all the other polyphosphate kinases exhibited both AMP and ADP phosphorylase activities	all the other polyphosphate kinases exhibited both AMP and ADP phosphorylase activities
